# Reference: patent US20080213125A1, “Apparatus and Method for Using Ozone as a Disinfectant” (Huawei Technologies Co. LTD., priority 2004, published 2008)
# “And” between values parts separate entries of the source, which are not always exact repeats. Equal values may be shown once. Read-outs that look alike come from different tables or passages of the source.
# Legend:
# [1] = tested on: Herpes Simplex Virus (HSV); experiment: Experiment #1: ozone gas exposure of virus on surfaces in a chamber
# [2] = tested on: Feline calicivirus (FCV); experiment: as above
# [3] = tested on: Mulluscum Contagiosum Virus (MCV)
# [4] = tested on: Poliovirus; settings: under similar conditions (about 100 ppm chamber)
# [5] = tested on: viruses
# [6] = tested on: HSV; experiment: Experiment #2: ozone inactivation at different locations within a test room; settings: 28 ppm, 60 minutes exposure; three samples at three locations in test room
# [7] = tested on: FCV; experiment: Experiment #3: reduced ozone doses and high humidity; settings: high humidity, 20 ppm to 40 ppm, about 15 minutes
# [8] = tested on: Poliovirus; settings: high humidity, 20 ppm to 40 ppm, about 15 minutes
# [9] = tested on: HSV; experiment: Experiment #3: reduced ozone doses and high humidity; settings: high humidity, 20 ppm to 40 ppm, about 15 minutes
# [10] = tested on: Herpes Simplex Virus (HSV); experiment: Experiment #4: ozone gas against dried viruses on surfaces
# [11] = tested on: FV
# [12] = tested on: MCV
# [13] = tested on: influenza virus
# [14] = tested on: corona virus
# [15] = tested on: rhinovirus; experiment: Experiment #4: ozone gas against dried viruses on surfaces; settings: dried state on glass, plastic, steel, wood and fabric
# [16] = tested on: Poliovirus; settings: dried state on glass, plastic, steel, wood and fabric
# [17] = tested on: viruses; remark: listed apart in the source
# [18] = tested on: Feline calicivirus (FCV)
# [19] = tested on: MS2 coliphage; settings: aqueous, 20 seconds, ozone demand-free 0.05 M phosphate buffer (pH 6.9) at 22 degrees C.; cited from earlier work
# [20] = tested on: Polio-virus type 3; settings: aqueous, 20 seconds, ozone demand-free 0.05 M phosphate buffer (pH 6.9) at 22 degrees C.; cited from earlier work
# [21] = tested on: Polio-viruses; settings: aqueous, 1.0 to 1.5 mg ozone/liter (dissolved); cited from earlier work
# [22] = tested on: Polio-virus 1 (PV1); settings: steadily flowing water at 20 degrees C. and pH 7; cited from earlier work
# [23] = tested on: Hepatitis A virus; settings: aqueous, 60 seconds, 1 mg/L or greater at all pH levels; cited from earlier work
# [24] = tested on: HIV Type 1; settings: 2 hours, 1,200 ppm; cited from earlier work
# [25] = target: factor VIII (Homo sapiens, UniProt P00451); settings: plasma and immunoaffinity-purified preparations; 2 hours, 1,200 ppm; cited from earlier work
# [26] = tested on: Human rotavirus; settings: cited from earlier work
# [27] = tested on: Venezuelan equine encephalomyelitis virus; settings: aqueous, 45 minutes, 0.025 mg of ozone per liter; control levels 10 (7.25-7.5); cited from earlier work
# [28] = tested on: Poliovirus; settings: 0.1-2.0 mg/l, aqueous, cited from earlier work
# [29] = tested on: HIV; settings: serum and serum-supplemented media; tested 0.5 to 4.0 micrograms/ml−1; cited from earlier work
# [30] = tested on: HEp-2 cell-associated poliovirus (Sabin 1); settings: cited from earlier work
# [31] = tested on: HEp-2 cell-associated coxsackievirus A9; settings: aqueous, 30 seconds, 4.06-4.68 mg/liter; cited from earlier work
# [32] = tested on: Influenza virus; settings: gaseous, in vivo, 0.5 ppm; cited from earlier work
# [33] = tested on: Human rotavirus; settings: aqueous, 25 μg/ml; cited from earlier work
# [34] = tested on: Vesicular stomatitis virus (VSV); settings: 3 to 14 mL of 1.4 mmol/L (65 micrograms/mL) to 1.6 mmoler/L, aqueous; cited from earlier work
# [35] = tested on: bacteriophage phi 6; settings: 3 to 14 mL of 1.4 mmol/L (65 micrograms/mL) to 1.6 mmoler/L, aqueous; cited from earlier work
# [36] = tested on: T1 phage; settings: gaseous, 10 minutes, 10 ppm; cited from earlier work
# [37] = tested on: Influenza virus; settings: inhaled, 0.5 ppm; cited from earlier work
# [38] = tested on: Respiratory syncytial virus; settings: gaseous, in vitro, 2 hours, 1 ppm; cited from earlier work
# [39] = tested on: Influenza virus; settings: continuous, 0.5 ppm; cited from earlier work
# [40] = tested on: Influenza virus; settings: 3 hours (post infection), 0.6 ppm; cited from earlier work
# [41] = tested on: Hepatitis A virus; settings: ozone and UV light, cited from earlier work
# [42] = tested on: type 39 rhinovirus; settings: cited from earlier work
# Chain of factor VIII (P00451 20-2351): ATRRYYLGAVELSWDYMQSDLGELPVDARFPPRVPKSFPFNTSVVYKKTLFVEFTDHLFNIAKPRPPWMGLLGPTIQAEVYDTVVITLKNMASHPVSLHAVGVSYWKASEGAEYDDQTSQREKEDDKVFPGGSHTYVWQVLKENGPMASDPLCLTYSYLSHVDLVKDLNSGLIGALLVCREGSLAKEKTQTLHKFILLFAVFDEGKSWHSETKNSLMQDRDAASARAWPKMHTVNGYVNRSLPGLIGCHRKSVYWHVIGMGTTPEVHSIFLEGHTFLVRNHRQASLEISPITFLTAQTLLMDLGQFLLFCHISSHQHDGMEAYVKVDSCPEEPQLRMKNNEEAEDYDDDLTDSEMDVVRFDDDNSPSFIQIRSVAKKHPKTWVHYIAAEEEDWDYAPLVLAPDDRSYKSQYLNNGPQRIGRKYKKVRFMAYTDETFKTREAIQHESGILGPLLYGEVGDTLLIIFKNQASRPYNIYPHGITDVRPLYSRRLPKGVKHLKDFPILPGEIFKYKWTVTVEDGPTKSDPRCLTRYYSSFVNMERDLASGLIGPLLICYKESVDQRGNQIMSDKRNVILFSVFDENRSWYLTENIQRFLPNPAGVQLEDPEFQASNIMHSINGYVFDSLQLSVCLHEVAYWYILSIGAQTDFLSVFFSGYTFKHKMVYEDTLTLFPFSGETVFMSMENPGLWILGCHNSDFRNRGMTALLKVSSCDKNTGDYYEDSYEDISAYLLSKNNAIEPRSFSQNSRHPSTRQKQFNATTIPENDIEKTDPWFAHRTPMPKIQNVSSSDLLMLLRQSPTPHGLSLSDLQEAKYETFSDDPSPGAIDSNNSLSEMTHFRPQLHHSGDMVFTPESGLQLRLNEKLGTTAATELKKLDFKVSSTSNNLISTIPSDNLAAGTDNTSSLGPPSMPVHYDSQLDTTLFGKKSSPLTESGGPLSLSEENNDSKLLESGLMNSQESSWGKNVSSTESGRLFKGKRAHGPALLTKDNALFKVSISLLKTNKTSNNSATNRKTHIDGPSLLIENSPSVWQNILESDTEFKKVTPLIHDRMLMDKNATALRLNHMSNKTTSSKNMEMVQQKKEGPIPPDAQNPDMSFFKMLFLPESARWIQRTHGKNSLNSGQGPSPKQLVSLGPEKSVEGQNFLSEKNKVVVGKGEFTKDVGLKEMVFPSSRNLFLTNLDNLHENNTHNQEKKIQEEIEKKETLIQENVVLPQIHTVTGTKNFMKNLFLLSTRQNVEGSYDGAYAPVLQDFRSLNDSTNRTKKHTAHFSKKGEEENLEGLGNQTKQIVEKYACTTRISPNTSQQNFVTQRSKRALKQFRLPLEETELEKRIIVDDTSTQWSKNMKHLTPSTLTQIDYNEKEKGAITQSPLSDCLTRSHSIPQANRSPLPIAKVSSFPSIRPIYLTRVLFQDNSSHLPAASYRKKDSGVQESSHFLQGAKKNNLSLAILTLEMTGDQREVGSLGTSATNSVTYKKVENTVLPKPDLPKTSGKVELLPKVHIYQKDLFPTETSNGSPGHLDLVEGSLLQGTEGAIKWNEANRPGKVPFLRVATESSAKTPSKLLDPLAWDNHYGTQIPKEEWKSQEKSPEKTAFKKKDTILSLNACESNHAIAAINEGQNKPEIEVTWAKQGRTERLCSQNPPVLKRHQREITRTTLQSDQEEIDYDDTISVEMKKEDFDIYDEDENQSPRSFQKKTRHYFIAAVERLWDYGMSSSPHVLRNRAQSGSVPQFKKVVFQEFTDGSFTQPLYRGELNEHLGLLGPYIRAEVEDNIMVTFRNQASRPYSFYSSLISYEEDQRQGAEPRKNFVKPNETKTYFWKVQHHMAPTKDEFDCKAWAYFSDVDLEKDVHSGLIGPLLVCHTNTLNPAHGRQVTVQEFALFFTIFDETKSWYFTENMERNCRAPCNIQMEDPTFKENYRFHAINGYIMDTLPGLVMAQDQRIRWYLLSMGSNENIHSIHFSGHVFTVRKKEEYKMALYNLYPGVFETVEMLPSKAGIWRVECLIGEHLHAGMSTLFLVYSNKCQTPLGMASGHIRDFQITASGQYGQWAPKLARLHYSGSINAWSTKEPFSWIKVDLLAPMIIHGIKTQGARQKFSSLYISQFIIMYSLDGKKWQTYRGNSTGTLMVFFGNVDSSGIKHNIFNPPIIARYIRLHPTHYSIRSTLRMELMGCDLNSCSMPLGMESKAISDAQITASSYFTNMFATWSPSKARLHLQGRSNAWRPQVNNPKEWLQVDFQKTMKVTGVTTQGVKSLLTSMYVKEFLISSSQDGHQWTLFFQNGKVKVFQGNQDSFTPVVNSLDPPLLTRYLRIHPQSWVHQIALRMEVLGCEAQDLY
substance,measurement,setting,value
Ozone,reduced the virus,[1]; 100 ppm for 20-30 minutes,more than 99%
same,inactivated virus infectivity,"[1]; 100 ppm, 10 minutes",90-95%
same,reduced the virus,[2]; 100 ppm for 20-30 minutes,more than 99%
same,inactivated virus infectivity,"[2]; 100 ppm, 10 minutes",90-95%
same,reduced the virus,[3],more than 99%
same,inactivation by ozone,[4],inactivated
same,susceptibility of viruses to ozone on surfaces,[5],susceptible
same,virus inactivation in high humidity versus ambient humidity,[5],much more efficiently
same,virus infectivity after exposure,[5],no vilus infectivity could be detected at all
same,HSV inactivated (killed),[6],98% and 99.4% and 97.8%
same,inactivated,[7],99.91%
same,inactivated,[8],more than 99.6%
same,inactivated,[9],more than 99%
same,reduced the virus,[10]; 100 ppm for 20 to 30 minutes,more than 99%
same,inactivation (kill) by ozone gas,"[10]; dried state on glass, plastic, steel, wood and fabric",efficiently inactivate
same,reduced the virus,[11],more than 99%
same,reduced the virus,[12],more than 99%
same,inactivation (kill) by ozone gas,[13],efficiently inactivate
same,inactivation (kill) by ozone gas,[14],efficiently inactivate
same,inactivation (kill) by ozone gas,[15],efficiently inactivate
same,inactivation (kill) by ozone gas,[16],efficiently inactivate
same,susceptibility of viruses to ozone on surfaces,[17],susceptible
same,virus inactivation in high humidity versus ambient humidity,[17],much more efficiently
same,inactivation by the ozone generator,[18],efficiently inactivated
same,MS2 coliphage inactivated,[19],>99.99% of MS2 coliphage
same,more inactivation observed with MS2 coliphage than with poliovirus type 3,[20],"inactivated, 1.6 log units more"
same,Effectiveness,[21],Dependant on the condition
same,Concentration for complete inactivation of PV1,[22],0.13 mg/L
same,complete inactivation,[23],complete (5 log) inactivation
same,inactivation,[24],>11 log inactivation (NB.
same,effect on factor VIII activity,[25],Minimal effect on factor VIII
same,sensitivity of human rotavirus to inactivation compared with simian rotavirus,[26],strikingly less sensitive to
same,inactivation,[27],Inactivation of 10 (6.5) median median cell culture infective doses
same,"virus inactivated, Step 1",[28]; Step 1: 0.2-1.0 s,Step 1: 95 to 99% of the virus
same,"virus inactivated, Step 2",[28]; Step 2: several minutes,Step 2: remainder inactivated
same,concentration at which complete inactivation of HIV obtained,[29],obtained at 4.0 micrograms/ml−1
same,Effectiveness (inactivation),[30],Inactivated cell-associated
same,Effectiveness (inactivation),[31],Inactivated cell-associated
same,Severity of infection,[32],Severity of infection reduced
same,decrease of rotavirus infectivity,[33],8 to 9 log10 TCID50/ml.
same,inactivated,[34],Inactivated by greater than 4 log10
same,inactivated,[35],Inactivated by greater than 4 log10
same,reduction in number of phages,[36],90% reduction in number of
same,distribution of viral antigen,[37],well as altered the distribution
same,spread of infection,[37],"less widespread infection, as"
same,"percentage of cells infected, experimental versus control groups",[38],No difference
same,acute virus-induced lung injury & residual lung damage,[39],exposure mitigates acute
same,mitigated the virus-induced acute lung injury,[39],approximately 50%. Ozone
same,proliferation of virus in the lungs as quantitated by infectious virus titers,[39],Ozone exposure did not alter
same,virus growth in nose,[40],Complete inhibition of virus
same,virus titre after depuration,"[41]; from 1.72 log TCID50 ml(−1), within 24 h",[TCID50] ml(−1) to <1 log log TCID50 ml(−1)
same,virus titre after depuration,"[41]; from 3.82 log TCID50 ml(−1), within 48 h",ml(−1) to <1 log TCID50 ml(−1)
same,adverse effects in experimental group,"[42]; human, in vivo",placebo groups; no adverse
same,effect on individuals infected with rhinovirus,"[42]; human, in vivo",no effect
same,"viral titres, experimental versus placebo groups","[42]; inhaled, 0.3 ppm, 6 hours per day for five days",No difference in viral titres
